Drawing on patent US9000174B2, “4-phenylsulfonamidopiperidines as calcium channel blockers” (Purdue Pharma L.P., priority 2004, dated 2015), this text covers IC50 for 19 compounds.

SMILES strings stand for the structures. pIC50: −log10 of the molar value. Structures can show the parent of a compound that is named as a salt.

T1 sequence (Q00975 whole entry): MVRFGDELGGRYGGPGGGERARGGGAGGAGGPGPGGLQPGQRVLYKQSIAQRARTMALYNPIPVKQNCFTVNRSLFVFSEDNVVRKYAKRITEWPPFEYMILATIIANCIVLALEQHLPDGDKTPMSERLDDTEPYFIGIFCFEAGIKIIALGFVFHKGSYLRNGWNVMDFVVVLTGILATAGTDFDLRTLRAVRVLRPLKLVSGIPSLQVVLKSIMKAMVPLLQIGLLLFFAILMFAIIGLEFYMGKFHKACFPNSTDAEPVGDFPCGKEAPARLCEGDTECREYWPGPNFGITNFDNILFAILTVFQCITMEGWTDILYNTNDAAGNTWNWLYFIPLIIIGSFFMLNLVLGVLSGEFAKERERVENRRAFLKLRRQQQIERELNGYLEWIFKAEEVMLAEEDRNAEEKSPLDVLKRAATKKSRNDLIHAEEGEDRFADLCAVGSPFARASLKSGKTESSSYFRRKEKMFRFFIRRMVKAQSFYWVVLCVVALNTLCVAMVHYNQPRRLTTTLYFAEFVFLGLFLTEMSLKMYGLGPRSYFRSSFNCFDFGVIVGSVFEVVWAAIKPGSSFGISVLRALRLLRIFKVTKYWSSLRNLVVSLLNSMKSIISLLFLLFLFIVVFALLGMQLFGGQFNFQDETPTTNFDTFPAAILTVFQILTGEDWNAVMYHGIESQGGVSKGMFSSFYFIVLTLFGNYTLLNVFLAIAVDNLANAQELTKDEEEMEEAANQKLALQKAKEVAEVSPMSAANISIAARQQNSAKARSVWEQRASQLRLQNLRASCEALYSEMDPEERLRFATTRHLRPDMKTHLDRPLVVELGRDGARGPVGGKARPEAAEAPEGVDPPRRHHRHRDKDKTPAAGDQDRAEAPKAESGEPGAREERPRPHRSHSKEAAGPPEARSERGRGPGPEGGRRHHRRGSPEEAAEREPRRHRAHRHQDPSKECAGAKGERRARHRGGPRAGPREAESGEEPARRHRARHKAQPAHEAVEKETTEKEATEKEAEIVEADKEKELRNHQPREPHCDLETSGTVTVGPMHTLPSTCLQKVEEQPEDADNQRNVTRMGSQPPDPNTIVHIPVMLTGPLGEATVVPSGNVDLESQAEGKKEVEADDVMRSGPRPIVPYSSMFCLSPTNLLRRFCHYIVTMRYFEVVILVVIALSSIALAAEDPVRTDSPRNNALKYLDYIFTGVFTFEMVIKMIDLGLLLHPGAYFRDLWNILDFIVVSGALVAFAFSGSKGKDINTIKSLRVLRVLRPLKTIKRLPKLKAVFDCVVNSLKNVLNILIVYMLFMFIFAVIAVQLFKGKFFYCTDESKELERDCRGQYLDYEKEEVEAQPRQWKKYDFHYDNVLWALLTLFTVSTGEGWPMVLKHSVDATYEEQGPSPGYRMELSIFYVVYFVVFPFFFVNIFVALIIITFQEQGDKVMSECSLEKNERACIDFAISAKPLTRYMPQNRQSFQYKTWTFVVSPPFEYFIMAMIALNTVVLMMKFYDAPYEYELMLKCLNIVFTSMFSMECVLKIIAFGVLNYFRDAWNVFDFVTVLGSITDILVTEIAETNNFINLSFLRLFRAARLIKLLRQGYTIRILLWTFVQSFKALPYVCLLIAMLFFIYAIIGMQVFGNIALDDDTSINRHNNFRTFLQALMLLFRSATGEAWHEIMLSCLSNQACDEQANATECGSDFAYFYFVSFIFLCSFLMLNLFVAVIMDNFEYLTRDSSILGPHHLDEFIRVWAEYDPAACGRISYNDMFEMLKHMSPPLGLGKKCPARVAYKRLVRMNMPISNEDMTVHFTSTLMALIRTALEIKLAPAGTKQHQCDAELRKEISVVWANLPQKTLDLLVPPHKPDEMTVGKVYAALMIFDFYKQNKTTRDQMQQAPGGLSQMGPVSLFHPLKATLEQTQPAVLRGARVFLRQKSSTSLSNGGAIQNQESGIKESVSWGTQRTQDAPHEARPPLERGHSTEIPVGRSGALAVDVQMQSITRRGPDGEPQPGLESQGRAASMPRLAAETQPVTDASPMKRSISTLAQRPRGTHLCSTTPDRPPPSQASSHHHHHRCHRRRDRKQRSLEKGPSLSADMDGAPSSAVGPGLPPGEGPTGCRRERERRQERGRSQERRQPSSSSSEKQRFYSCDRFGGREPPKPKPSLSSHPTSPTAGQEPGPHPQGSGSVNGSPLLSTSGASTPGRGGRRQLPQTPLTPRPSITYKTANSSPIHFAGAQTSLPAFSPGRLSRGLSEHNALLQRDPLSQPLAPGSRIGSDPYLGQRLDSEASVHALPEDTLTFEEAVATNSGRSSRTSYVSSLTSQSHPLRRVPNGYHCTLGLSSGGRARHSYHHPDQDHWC
T1 sequence (P54284 whole entry partner): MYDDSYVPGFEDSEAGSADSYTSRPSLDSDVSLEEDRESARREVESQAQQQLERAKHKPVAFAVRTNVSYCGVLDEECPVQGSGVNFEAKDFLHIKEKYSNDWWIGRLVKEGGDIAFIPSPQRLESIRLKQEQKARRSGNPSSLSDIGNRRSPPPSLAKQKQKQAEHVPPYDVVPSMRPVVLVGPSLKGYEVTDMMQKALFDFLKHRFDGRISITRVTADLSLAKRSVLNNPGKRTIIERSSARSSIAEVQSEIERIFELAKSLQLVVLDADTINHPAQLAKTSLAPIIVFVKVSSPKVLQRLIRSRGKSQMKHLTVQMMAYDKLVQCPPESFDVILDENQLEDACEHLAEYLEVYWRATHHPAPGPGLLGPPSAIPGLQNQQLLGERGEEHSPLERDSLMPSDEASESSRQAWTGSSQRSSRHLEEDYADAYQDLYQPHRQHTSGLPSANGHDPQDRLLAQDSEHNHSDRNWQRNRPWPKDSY
T1 sequence (P54289 25-956 partner limits assumed): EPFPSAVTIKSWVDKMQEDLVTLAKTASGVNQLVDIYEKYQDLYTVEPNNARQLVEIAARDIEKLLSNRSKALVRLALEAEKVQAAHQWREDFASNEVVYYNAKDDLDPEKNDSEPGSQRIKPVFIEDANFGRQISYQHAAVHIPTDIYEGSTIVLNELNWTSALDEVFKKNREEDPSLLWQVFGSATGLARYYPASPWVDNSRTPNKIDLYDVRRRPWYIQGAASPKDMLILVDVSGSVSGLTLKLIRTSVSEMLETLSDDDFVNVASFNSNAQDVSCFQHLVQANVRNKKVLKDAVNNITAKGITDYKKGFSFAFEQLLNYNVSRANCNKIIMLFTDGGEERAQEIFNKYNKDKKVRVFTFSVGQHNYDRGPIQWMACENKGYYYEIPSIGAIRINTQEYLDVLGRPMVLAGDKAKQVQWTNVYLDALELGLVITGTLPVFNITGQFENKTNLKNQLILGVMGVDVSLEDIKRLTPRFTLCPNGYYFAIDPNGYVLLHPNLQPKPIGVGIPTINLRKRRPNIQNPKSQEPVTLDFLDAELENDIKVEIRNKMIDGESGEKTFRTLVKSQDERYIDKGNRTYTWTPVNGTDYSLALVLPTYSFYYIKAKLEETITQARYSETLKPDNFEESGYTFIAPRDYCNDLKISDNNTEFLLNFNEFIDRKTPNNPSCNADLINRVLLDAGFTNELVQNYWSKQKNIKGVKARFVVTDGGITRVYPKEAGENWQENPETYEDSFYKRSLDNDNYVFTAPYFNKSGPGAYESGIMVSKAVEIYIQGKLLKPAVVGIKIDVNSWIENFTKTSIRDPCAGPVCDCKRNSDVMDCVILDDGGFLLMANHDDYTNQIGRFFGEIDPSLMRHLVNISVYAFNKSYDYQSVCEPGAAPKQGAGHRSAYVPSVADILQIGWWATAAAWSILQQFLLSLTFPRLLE
T1 sequence (P54289 957-1103 partner limits assumed): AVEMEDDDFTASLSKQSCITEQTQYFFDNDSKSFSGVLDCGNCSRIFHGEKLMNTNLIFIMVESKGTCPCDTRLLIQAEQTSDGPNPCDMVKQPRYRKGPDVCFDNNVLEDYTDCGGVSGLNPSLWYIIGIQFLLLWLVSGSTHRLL

This experiment addresses T1, N-type calcium channel (NTCC) (Homo sapiens, UniProt Q00975).
T1 construct: endogenous in cells; host or cells: differentiated IMR32 cells (ATCC)
The experiment in a line: FLIPR calcium mobilization (and/or electrophysiological) assay for N-type calcium channel. The class given is cell-based. To be noted: calcium mobilization and/or electrophysiological in vitro assay; differentiated IMR32 cells, 90 mM KCl, 5 μM nitrendipine. As to the method: Unless noted otherwise, cell culture reagents were purchased from Life Technologies of Rockville, Md. IMR32 cells (American Type Culture Collection, ATCC, Manassas, Va.) were routinely cultured in growth medium consisting of minimum essential medium containing 10% fetal bovine serum (FBS, Hyclone, Logan, Utah), 100 U/mL penicillin, 100 μg/mL streptomycin, 2 mM L-glutamine, 1 mM sodium pyruvate, and 1×MEM non-essential amino acids. 80-90% confluent flasks of cells were differentiated using the following differentiation medium: Growth medium plus 1 mM dibutyryl cyclic AMP (Sigma, St. Louis, Mo.), and 2.5 μM bromodeoxyuridine (Sigma). Cells were differentiated for 8 days by replacing differentiation medium every 2-3 days.
One day prior to performing this assay, differentiated IMR32 cells were treated with 1× CellStripper, and seeded on poly-D-lysine-coated 96-well clear-bottom black plates (Becton Dickinson, Franklin Lakes, N.J.) at 200,000 cells/well. On the day of the assay, the cell plates were washed with IMR32 buffer (127 mM NaCl, 1 mM KCl, 2 mM MgCl2, 700 μM NaH2PO4, 5 mM CaCl2, 5 mM NaHCO3, 8 mM HEPES, 10 mM glucose, pH 7.4), then pre-stimulated with KCl and loaded as follows: 0.05 mL of IMR32 buffer, 0.05 mL of each compound tested diluted in IMR32 buffer containing 20 μM nitrendipine (Sigma), and 0.1 mL KCl dissolved in IMR32 buffer, plus Fluo-4 were added (3 μM final concentration, Molecular Probes, Eugene, Oreg.). Final test compound concentrations ranged from about 846 pM to about 17 μM, final nitrendipine concentration was 5 μM, and final KCl concentration was 90 mM. After 1 hour, the cells were washed twice with 0.05 mL of each compound tested in nitrendipine-containing IMR32 buffer (no KCl or Fluo-4), and then replaced with 0.1 mL of each compound tested in nitrendipine-containing IMR32 buffer. Plates were then transferred to a Fluorimetric Imaging Plate Reader (FLIPR^96, Molecular Devices, Inc., Sunnyvale, Calif.) for assay. The FLIPR measured basal Fluo-4 fluorescence for 315 seconds (i.e., 5 minutes and 15 seconds), then added 0.1 mL KCl agonist dissolved in IMR32 buffer and measured fluorescence for another 45 seconds. Final test compound concentrations on the cells after FLIPR read ranged from about 846 pM to about 17 μM, final nitrendipine concentration was 5 μM, and final KCl concentration was 90 mM. Data were collected over the entire time course and analyzed using Excel, Graph Pad Prism (version 3.02, Graph Pad, San Diego, Calif.), or Activity Base (version 5.1, IDBS, Parsippany, N.J.) software.
N-type calcium channel expressing HEK-293 cells were created in two stages. Stage 1 was created as follows. The rat α1b, and β3 cDNA expression constructs (2.5 μg each) were co-transfected into human embryonic kidney (HEK-293) cells by Lipofectamine Plus reagent (Invitrogen), as per manufacturer's instructions. 24 hours later, cells were split in limiting dilution into multiple 96-well plates in selection media containing 20 μg/mL blasticidin and 500 μg/mL geneticin, and incubated for 3 weeks at 37° C., 5% CO2, 95% humidity. Plates containing ≦1 clone per well were cultured until wells positive for single clones were confluent. Individual clones were then arrayed into columns of a destination 96-well plate, and partly split into 6-well plates for culture maintenance. Array plates were washed once with IMR32 buffer and cells loaded for 1 hour with 0.1 mL of IMR32 buffer containing Fluo-4 (3 μM final concentration, Molecular Probes). Then they were washed twice with 0.1 mL of IMR32 buffer, and replaced with 0.1 mL IMR32 buffer. Plates were then transferred to a FLIPR^96 for assay. The FLIPR measured basal Fluo-4 fluorescence for 315 seconds, then added 0.1 mL KCl agonist dissolved in IMR32 buffer and measured fluorescence for another 45 seconds. Final KCl concentration was 90 mM. Data were collected over the entire time course and analyzed using Excel, Graph Pad Prism, or Activity Base software. […]
As for `CN[C@@H](CC(C)C)C(=O)N1CCC(N(CCO)S(=O)(=O)c2cccc(C(F)(F)F)c2)CC1` [(2S) N-(2-Hydroxyethyl)-N-[1-(4-methyl-2-methylamino-pentanoyl)piperidin-4-yl]-3-trifluoromethylbenzenesulfonamide hydrochloride], the negative logarithm of the IC50 (pIC50) is 5.65. The figure for `CN[C@@H](CC(C)C)C(=O)N1CCC(N(CCOC)S(=O)(=O)c2cccc(C(F)(F)F)c2)CC1` [(2S) N-(2-methoxyethyl)-N-[1-(4-methyl-2-methylaminopentanoyl)-piperidin-4-yl]-3-trifluoromethylbenzenesulfonamide] is 5.91. Under `CN[C@@H](CC(C)C)C(=O)N1CCC(N(C2CCCC2)S(=O)(=O)c2cccc(C(F)(F)F)c2)CC1` [(2S) N-Cyclopentyl-N-[1-(4-methyl-2-methylamino-pentanoyl)piperidin-4-yl]-3-trifluoromethylbenzenesulfonamide fumarate] stands 5.81; under `CN[C@@H](CC(C)C)C(=O)N1CCC(N(C2CC2)S(=O)(=O)c2cccc(OC(F)F)c2)CC1` [(2S) N-Cyclopropyl-N-[1-(4-methyl-2-methylaminopentanoyl)-piperidin-4-yl]-3-difluoromethoxybenzenesulfonamide], 5.61. Consider `CN[C@@H](CC(C)C)C(=O)N1CCC(N(CC2CC2)S(=O)(=O)c2cccc(C(F)(F)F)c2)CC1` [(2S) N-Cyclopropylmethyl-N-[1-(4-methyl-2-methylamino-pentanoyl)piperidin-4-yl]-3-trifluoromethylbenzenesulfonamide fumarate], for which the pIC50 was 5.88. In the case of `CN[C@@H](CC(C)C)C(=O)N1CCC(N(C2CCOC2)S(=O)(=O)c2cccc(C(F)(F)F)c2)CC1` (stereo partly drawn) [(2S) N-[1-(4-Methyl-2-methylaminopentanoyl)piperidin-4-yl]-N-(tetrahydrofuran-3-yl)-3-trifluoromethylbenzenesulfonamide fumarate], the pIC50 was 5.74. `CN[C@@H](CC(C)C)C(=O)N1CCC(N(C[C@@H]2CCCO2)S(=O)(=O)c2cccc(C(F)(F)F)c2)CC1` [(2S) N-[1-(4-methyl-2-methylaminopentanoyl)piperidin-4-yl]-N-(tetrahydrofuran-2-yl)methyl-3-trifluoromethylbenzenesulfonamide]: the pIC50 was 5.30. Under `CN[C@@H](CC(C)C)C(=O)N1CCC(N(C2CC2)S(=O)(=O)c2cccc(Cl)c2)CC1` [(2S) N-cyclopropyl-N-[1-(4-methyl-2-methylaminopentanoyl)-piperidin-4-yl]-3-chlorobenzenesulfonamide] stands 5.58.

`CN[C@@H](CC(C)C)C(=O)N1CCC(N(C2CC2)S(=O)(=O)c2cccc(C#N)c2)CC1` [(2S) N-cyclopropyl-N-[1-(4-methyl-2-methylaminopentanoyl)-piperidin-4-yl]-3-cyanobenzenesulfonamide]: the negative logarithm of the IC50 (pIC50) is 5.37. For `CN[C@@H](CC(C)C)C(=O)N1CCC(N(C2CC2)S(=O)(=O)c2cccc(F)c2)CC1` [(2S) N-cyclopropyl-N-[1-(4-methyl-2-methylaminopentanoyl)-piperidin-4-yl]-3-fluorobenzenesulfonamide], the pIC50 is 5.33. Regarding `CN[C@@H](CC(C)C)C(=O)N1CCC(N(C2CC2)S(=O)(=O)c2cccc(OC)c2)CC1` [(2S) N-cyclopropyl-N-[1-(4-methyl-2-methylaminopentanoyl)-piperidin-4-yl]-3-methoxybenzenesulfonamide], the negative-log IC50 (pIC50) is 5.14. `CN[C@@H](CC(C)C)C(=O)N1CCC(N(C2CC2)S(=O)(=O)c2cccc(C)c2)CC1` [(2S) N-cyclopropyl-N-[1-(4-methyl-2-methylaminopentanoyl)-piperidin-4-yl]-3-methylbenzenesulfonamide]: the pIC50 was 5.08. As to `CN[C@@H](CC(C)C)C(=O)N1CCC(N(C2CC2)S(=O)(=O)c2cccc([N+](=O)[O-])c2)CC1` [(2S) N-cyclopropyl-N-[1-(4-methyl-2-methylaminopentanoyl)-piperidin-4-yl]-3-nitrobenzenesulfonamide], the pIC50 was 5.44.

For the compound `CN[C@@H](CC(C)C)C(=O)N1CCC(N(CCC(C)C)S(=O)(=O)c2cccc(C(F)(F)F)c2)CC1` [(2S) N-i-pentyl-N-[1-(4-methyl-2-methylaminopentanoyl)piperidin-4-yl]-3-trifluoromethylbenzenesulfonamide], the pIC50 was 5.90.

`CCCC=CC(=O)N1CCC(N(C2CC2)S(=O)(=O)c2cccc(C(F)(F)F)c2)CC1` [N-Cyclopropyl-N-(1-hex-2-enoyl-piperidin-4-yl)-3-trifluoromethylbenzenesulfonamide]: the negative logarithm of the IC50 (pIC50) was 5.92. In the case of `O=C(C1Cc2ccccc2CN1)N1CCC(N(C2CC2)S(=O)(=O)c2cccc(C(F)(F)F)c2)CC1` (stereo not shown) [N-Cyclopropyl-N-[1-(1,2,3,4-tetrahydroisoquinolin-3-carbonyl)piperidin-4-yl]-3-trifluoromethylbenzenesulfonamide], the pIC50 is 5.80.

As to `CN1CCCC1C(=O)N1CCC(N(C2CC2)S(=O)(=O)c2cccc(C(F)(F)F)c2)CC1` (stereo not shown) [N-Cyclopropyl-N-[1-(N-methylpyrrolidin-2-carbonyl)piperidin-4-yl]-3-trifluoromethylbenzenesulfonamide], the pIC50 was 5.86.

Regarding `NC1(C(=O)N2CCC(N(C3CC3)S(=O)(=O)c3cccc(C(F)(F)F)c3)CC2)CCCC1` [N-[1-(1-Aminocyclopentan-1-carbonyl)piperidin-4-yl]-N-cyclopropyl-3-trifluoromethylbenzenesulfonamide], the pIC50 is 5.97. With `O=C(CCC(=O)N1CCC(N(C2CC2)S(=O)(=O)c2ccccc2)CC1)c1ccc(F)cc1` [N-cyclopropyl-N-{1-[4-(4-fluorophenyl)-4-oxobutanoyl]piperidin-4-yl}benzenesulfonamide], the negative-log IC50 (pIC50) is 5.21.
